Experimental data published in paper PMC11405051, “HLA A*24:02–restricted T cell receptors cross-recognize bacterial and preproinsulin peptides in type 1 diabetes” (The Journal of Clinical Investigation, 2024).

How the values were obtained:
4C6 T cell clone = test: Peptide titration activation assay of 4C6 T cell clone, MIP-1β ELISA; type: cell-based, human; details: duplicate conditions
Experimental: 4C6 T-cells were rested overnight in R5 media (as for R10 but with 5% FBS) to reduce
spontaneous activation, followed by incubation in the presence of C1R-HLA A*24:02, with peptide mixtures
of defined length and random amino acid sequence (X8-14 in which X is any of the 20 proteogenic L-amino
acids, excluding cysteine) in R5 media overnight at 37°C and 5% CO2. MIP-1β production was measured by
enzyme-linked immunosorbent assay (ELISA, R&D Systems, Bio-Techne, Minneapolis, MN, US) as a proxy
for T cell activation as previously described (22). Peptide mixtures were synthesised at >40% purity
(Pepscan Presto, Lelystad, Netherlands) and stored at -80°C in DMSO at 40 mM. Mixtures were used in
assays at a concentration of 1 mM. Following conformation of the preference of 4C6 T-cells for 9-mer
peptides, nonamer PS-CPL screening was performed using libraries synthesised at >40% purity as
described previously (22, 23, 43). Libraries were stored at -80°C in DMSO at 20 mM. For assays, 6×104
C1R-HLA A*24:02 were pulsed with 100 μM of each CPL library mixture for 2 h at 37°C. Following this,
3×10^4 4C6 T cells were co-incubated with the pulsed C1R-HLA A*24:02 cells overnight at 37°C and 5% CO2.
Assay conditions were performed in duplicate. Supernatants were harvested the following morning and
assayed for the presence of MIP-1β, as above, by ELISA.
universe with bias toward good agonists.

[1] = system: tetramer-enriched T cell lines from HLA A*24+ healthy donors; test: Tetramer staining of tetramer-enriched T cell lines from HLA A*24+ healthy donors; type: cell-based, human
Experimental: The 4C6 T-cell clone was rested overnight in R5 media, as above then incubated with antigen presenting
cells, with 3 x104 4C6 T-cells and 6 x10^4 antigen presenting cells per well of a 96U well plate. The cells were
incubated overnight in R5 media at 37°C and 5% CO2, with all conditions performed in triplicate.
Supernatants were harvested and MIP-1β or TNF production measured by enzyme-linked immunosorbent
assay (ELISA, R&D Systems, Bio-Techne, Minneapolis, MN, US). Experiment 1 used C1R cells +/- HLA
A*24:02 +/- IGF2BP2 (irrelevant control), gsiA or fes genes. Experiment 2 used THP-1 and A549 cells: WT
and + HLA A*A24:02 +/- gsiA or fes genes. PHA (10 μg/mL) as a positive control and exogenous Klebsiella
peptides at 10 μM for comparison were also included. MIP-1β or TNF values for 4C6 T-cells or antigen
presenting cells incubated alone were subtracted during analysis.

[2] = Supplementary Figure 5, 60 biased-sampling peptides and index, 4C6 overnight with C1R-HLA A24:02, MIP-1β ELISA

Row | Sequence | EC50 (4C6 T cell clone; [2]) [µM] | further results
1 | AHPPLFNVM [9-mer drawn by CPL-biased importance sampling] | > 10 | 
2 | ALMRLFSLF [9-mer drawn by CPL-biased importance sampling] | > 10 | 
3 | AYAAAAAAL [irrelevant HLA A*24:02 peptide used in control tetramers] |  | % tetramer+ ([1]; CMV […] tetramer-enriched line, donor 572D, single-staining): 0%; % tetramer+ ([1]; CMV […] tetramer-enriched line, donor BB25, single-staining): 0.05%; % tetramer+ ([1]; CMV […] tetramer-enriched line, donor BB31, single-staining): 0.05%; % tetramer+ ([1]; CMV […] tetramer-enriched line, donor BB51, single-staining): 0.1%; % tetramer+ ([1]; CMV […] tetramer-enriched line, donor BB52, single-staining): 0.04%; % tetramer+ ([1]; CMV […] tetramer-enriched line, donor BB57, single-staining): 0.02%; % tetramer+ ([1]; CMV […] tetramer-enriched line, donor BB64, single-staining): 0.3%; % tetramer+ ([1]; Kleb SLPRLFPLL tetramer-enriched line, donor 572D, single-staining): 0%; % tetramer+ ([1]; Kleb SLPRLFPLL tetramer-enriched line, donor BB25, single-staining): 0.03%; % tetramer+ ([1]; Kleb SLPRLFPLL tetramer-enriched line, donor BB31, single-staining): 0.5%; % tetramer+ ([1]; Kleb SLPRLFPLL tetramer-enriched line, donor BB51, single-staining): 0.1%; % tetramer+ ([1]; Kleb SLPRLFPLL tetramer-enriched line, donor BB52, single-staining): 0%; % tetramer+ ([1]; Kleb SLPRLFPLL tetramer-enriched line, donor BB57, single-staining): 0.06%; % tetramer+ ([1]; Kleb SLPRLFPLL tetramer-enriched line, donor BB64, single-staining): 0.4%
4 | DHPPLFPMA [9-mer drawn by CPL-biased importance sampling] | > 10 | 
5 | DKPRLVPVI [9-mer drawn by CPL-biased importance sampling] | > 10 | 
6 | DLQRLVSVI [9-mer drawn by CPL-biased importance sampling] | > 10 | 
7 | DMMPLLPII [9-mer drawn by CPL-biased importance sampling] | > 10 | 
8 | DNPRLFGLT [9-mer drawn by CPL-biased importance sampling] | > 10 | 
9 | DYQRLVNLL [9-mer drawn by CPL-biased importance sampling] | > 10 | 
10 | ELPPLMSVW [9-mer drawn by CPL-biased importance sampling] | > 10 | 
11 | EMQPLFGMV [9-mer drawn by CPL-biased importance sampling] | > 10 | 
12 | ENMPLMPMI [9-mer drawn by CPL-biased importance sampling] | > 10 | 
13 | EWQPLFSIA [9-mer drawn by CPL-biased importance sampling] | > 10 | 
14 | EYMPLVGML [9-mer drawn by CPL-biased importance sampling] | > 10 | 
15 | EYPPLLNIL [9-mer drawn by CPL-biased importance sampling] | > 10 | 
16 | EYPPLVPIL [fungal peptide, Aspergillus niger, Unnamed protein product] |  | EC50 (4C6 T cell clone; Supplementary Figure 6, top 20 fungal database peptides, 4C6 overnight with C1R HLA A*24:02, MIP-1β ELISA): > 10 µM
17 | HYMPLFGVT [9-mer drawn by CPL-biased importance sampling] | > 10 | 
18 | HYQPLVPVL [9-mer drawn by CPL-biased importance sampling] | > 10 | 
19 | ILMPLMPMT [9-mer drawn by CPL-biased importance sampling] | > 10 | 
20 | IWPPLVPVT [9-mer drawn by CPL-biased importance sampling] | > 10 | 
21 | IWQPLAGVA [9-mer drawn by CPL-biased importance sampling] | > 10 | 
22 | KNLPLVPII [9-mer drawn by CPL-biased importance sampling] | > 10 | 
23 | KWLRLMPMM [9-mer drawn by CPL-biased importance sampling] | > 10 | 
24 | LLMPLVGLW [9-mer drawn by CPL-biased importance sampling] | > 10 | 
25 | LMMPLAPMM [9-mer drawn by CPL-biased importance sampling] | > 10 | 

Row | Sequence | EC50 (4C6 T cell clone; [2]) [µM] | further results
26 | LYQPLVGMV [9-mer drawn by CPL-biased importance sampling] | > 10 | 
27 | NHPRLVGVI [9-mer drawn by CPL-biased importance sampling] | > 10 | 
28 | NKLRLVNIM [9-mer drawn by CPL-biased importance sampling] | > 10 | 
29 | NLMRLMNLA [9-mer drawn by CPL-biased importance sampling] | > 10 | 
30 | NWQPLVSIW [9-mer drawn by CPL-biased importance sampling] | > 10 | 
31 | QHPPLASLI [9-mer drawn by CPL-biased importance sampling] | > 10 | 
32 | QKLPLLGLL [9-mer drawn by CPL-biased importance sampling] | > 10 | 
33 | QKQPLLPII [9-mer drawn by CPL-biased importance sampling] | > 10 | 
34 | QKQRLASIL [9-mer drawn by CPL-biased importance sampling] | > 10 | 
35 | QMLPLLPLF [9-mer drawn by CPL-biased importance sampling] | > 10 | 
36 | QMPPLVNIM [9-mer drawn by CPL-biased importance sampling] | > 10 | 
37 | QMQRLVNIV [9-mer drawn by CPL-biased importance sampling] | > 10 | 
38 | QWPRLVNVF [9-mer drawn by CPL-biased importance sampling] | > 10 | 
39 | QYLRLFNIT [9-mer drawn by CPL-biased importance sampling] | > 10 | 
40 | RHMRLFGML [9-mer drawn by CPL-biased importance sampling] | > 10 | 
41 | RLLPLVSVI [9-mer drawn by CPL-biased importance sampling] | > 10 | 
42 | RLMPLVPVV [9-mer drawn by CPL-biased importance sampling] | > 10 | 
43 | RNPPLVGIW [9-mer drawn by CPL-biased importance sampling] | > 10 | 
44 | RYPPLVPML [9-mer drawn by CPL-biased importance sampling] | > 10 | 
45 | SLLPLLGIL [9-mer drawn by CPL-biased importance sampling] | > 10 | 
46 | SMMRLLPVW [9-mer drawn by CPL-biased importance sampling] | > 10 | 
47 | SNMRLMPVV [9-mer drawn by CPL-biased importance sampling] | > 10 | 
48 | SNPPLMGLM [9-mer drawn by CPL-biased importance sampling] | > 10 | 
49 | SWLRLFNMM [9-mer drawn by CPL-biased importance sampling] | > 10 | 
50 | SYPPLVGMV [9-mer drawn by CPL-biased importance sampling] | > 10 | 
